Test results taken from US7825139B2, “Compounds and methods for selective inhibition of dipeptidyl peptidase-IV” (Forest Laboratories Holdings Limited (BM), priority 2005, dated 2010).

How the values were obtained:
DPP-IV = target: T1, DPP-IV (Sus scrofa, UniProt P22411); assay: DPP-IV fluorometric enzyme inhibition assay (Gly-Pro-AMC); type: biochemical, porcine
T1 construct: from tissue; host or cells: porcine
Description: The following methods were used to measure the activities of the compounds of the invention which inhibit the enzymatic activity of DPP-IV. The compounds of the invention are tested for their ability to inhibit the enzyme activity of purified DPP-IV. Briefly, the activity of DPP-IV is measured in vitro by its ability to cleave the synthetic substrate Gly-Pro-AMC. Cleavage of Gly-Pro-AMC by DPP-IV liberates the product AMC (7-amino-4-methyl coumarin), whose rate of appearance is directly proportional to the enzyme activity. Inhibition of the enzyme activity by specific enzyme inhibitors slows down the generation of AMC. […] The accumulation of AMC is measured fluorometrically. […]
Thus, DPP-IV enzyme activity was determined by a fluorometric assay with the substrate Gly-Pro-AMC which is cleaved by DPP-IV to release the fluorescent AMC leaving group. Free AMC (7-amino-4-methyl coumarin) was measured using an excitation wavelength of 380 nm and an emission wavelength of 460 nm with a Victor-II fluorescent reader. […] After 10-minutes substrate was added (10 μl) and allowed to react for 20-minutes at 26° C. before free AMC was measured. IC50 values were determined in triplicate, using a minimum of six different inhibitor concentrations. IC50 values were calculated using Nonlinear Regression Analysis (GraphPad, Prism, San Diego, Calif.). […]

Zucker Obese Fatty rats = assay: Toxicity in rats, oral dosing; type: in vivo, rat; conditions: 5-10 mg/kg, 4-24 hrs post-dose, all Zucker Obese Fatty rats tested
Excerpt: Toxicity in Rats: The Zucker Diabetic Fatty (ZDF) rat model can be used to investigate the effects of the compounds of the invention on both the treatment and prevention of diabetes as rats of this sub-strain are initially pre-diabetic although they develop severe type 2 diabetes characterized by increased HbAl c levels over a period of 6 weeks. The same strain can be used to predict the clinical efficacy of other anti-diabetic drug types. For example, the model predicts the potency and limited clinical efficacy of thiazolidinedione insulin sensitizer compounds. The experimental protocol requires p.o. (oral gavage) administration of either vehicle or test article at indicated doses either QD or BID using a gastric feeding needle with a ball tip, without anesthesia, using hand restraint to adult rats which have been fasted overnight. Animals are monitored for clinical signs at 1, 2, 4 and 8 hour time intervals following the treatment regimen. Whole blood samples (to a maximum level of 10% of the total blood volume every 2 weeks) were collected from the animals from the retro-orbital sinus in accordance with the guidelines of the IACUC committee.
The expected therapeutic dose level could not be reached for the comparative compounds before acute toxicity was observed.

T1 sequence (P22411 whole entry): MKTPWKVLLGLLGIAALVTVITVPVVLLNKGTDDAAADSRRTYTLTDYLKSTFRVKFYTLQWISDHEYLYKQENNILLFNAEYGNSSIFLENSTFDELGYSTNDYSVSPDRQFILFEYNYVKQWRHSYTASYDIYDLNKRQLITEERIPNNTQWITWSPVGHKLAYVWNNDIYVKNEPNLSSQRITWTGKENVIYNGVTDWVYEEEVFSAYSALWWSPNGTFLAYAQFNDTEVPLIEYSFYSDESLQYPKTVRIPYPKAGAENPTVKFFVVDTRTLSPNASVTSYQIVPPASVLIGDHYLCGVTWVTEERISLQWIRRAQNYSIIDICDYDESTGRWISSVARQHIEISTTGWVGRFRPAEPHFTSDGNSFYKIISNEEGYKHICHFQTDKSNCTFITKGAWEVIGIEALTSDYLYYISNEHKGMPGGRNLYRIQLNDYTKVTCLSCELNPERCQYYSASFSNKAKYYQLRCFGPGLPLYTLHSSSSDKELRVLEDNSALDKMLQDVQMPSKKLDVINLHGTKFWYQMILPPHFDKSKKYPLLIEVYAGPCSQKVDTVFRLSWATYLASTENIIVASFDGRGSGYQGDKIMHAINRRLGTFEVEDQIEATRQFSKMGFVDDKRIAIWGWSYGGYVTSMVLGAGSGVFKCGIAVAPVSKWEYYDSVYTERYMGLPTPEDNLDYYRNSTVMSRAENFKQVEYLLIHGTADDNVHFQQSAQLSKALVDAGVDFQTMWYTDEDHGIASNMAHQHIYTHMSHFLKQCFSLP

O=C(CNC1CCCC1)N1CCC[C@H]1B(O)O [Compound 19]
inhibition of DPP-IV (in words) (DPP-IV): potent inhibitor
acute toxicity in rats (Zucker Obese Fatty rats): acute toxicity (death)
